Data published in patent US10508285B2, “Method for screening of genes conferring increased tolerance to herbicides” (priority 2014, dated 2019).

How the values were obtained:
[1] = test system: Cytochrome P450 wildtype (Zea mays); test: Herbicide tolerance of transiently transformed tobacco leaf discs, PSII yield (PAM imaging); conditions: IC50 of PSII yield inhibition, Nicotiana benthamiana leaf discs expressing Zea mays Cytochrome P450 wildtype versus empty vector-transformed leaf discs
[2] = target: T1, Transketolase wildtype (Spinacia oleracea) (Spinacia oleracea, UniProt O20250); test: as above; assay type: cell-based; conditions: IC50 of PSII yield inhibition, Nicotiana benthamiana leaf discs expressing Spinacia oleracea Transketolase wildtype versus empty vector-transformed leaf discs
T1 construct: expressed in transfected cells; host or cells: Nicotiana benthamiana leaves, Agrobacterium tumefaciens GV2260 infiltration
T1 sequence (O20250 67-741): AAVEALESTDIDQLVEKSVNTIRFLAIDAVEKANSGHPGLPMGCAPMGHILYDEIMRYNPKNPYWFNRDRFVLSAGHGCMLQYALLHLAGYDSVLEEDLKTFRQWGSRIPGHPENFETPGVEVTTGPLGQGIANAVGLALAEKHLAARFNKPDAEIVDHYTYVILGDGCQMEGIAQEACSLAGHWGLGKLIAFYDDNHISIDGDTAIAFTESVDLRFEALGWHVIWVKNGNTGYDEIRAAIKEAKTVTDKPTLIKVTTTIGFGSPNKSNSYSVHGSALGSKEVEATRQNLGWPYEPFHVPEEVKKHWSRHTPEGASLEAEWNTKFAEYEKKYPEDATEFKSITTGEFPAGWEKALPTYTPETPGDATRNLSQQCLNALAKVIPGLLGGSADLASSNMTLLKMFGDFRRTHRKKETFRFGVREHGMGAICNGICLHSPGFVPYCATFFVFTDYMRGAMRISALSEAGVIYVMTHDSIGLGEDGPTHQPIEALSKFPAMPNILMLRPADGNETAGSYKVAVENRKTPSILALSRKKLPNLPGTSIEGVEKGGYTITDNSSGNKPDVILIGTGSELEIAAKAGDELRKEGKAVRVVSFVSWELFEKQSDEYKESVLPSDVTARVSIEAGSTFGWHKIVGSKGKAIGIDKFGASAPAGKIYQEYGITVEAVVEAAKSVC

[3] = test system: Protoporphyrinogen IX Oxidase (PPO) L397Q_F420M; assay type: cell-based, Amaranthus tuberculatus
[4] = test system: Protoporphyrinogen IX Oxidase (PPO) wildtype; test: Herbicide tolerance of transiently transformed tobacco leaf discs, PSII yield (PAM imaging); assay type: cell-based; conditions: IC50 of PSII yield inhibition, Nicotiana benthamiana leaf discs expressing Alopecurus myosuroides PPO wildtype versus empty vector-transformed leaf discs

Q: With `CC(C)N1C(=O)c2ccccc2NS1(=O)=O` [Bentazon] as the molecule, how does the Tolerance factor [1] read?
A: Its Tolerance factor is 13.4.

Q: How did the Tolerance factor [2] turn out when `C/C=C1/CC2=C(C(=O)OC2=O)[C@H](CCC)[C@H](O)C(=O)C[C@@H]1O` [Cornexistin] was run?
A: Its Tolerance factor is 3.6.

Q: Which results are given for `CC(C)N(C)S(=O)(=O)NC(=O)c1cc(-n2c(=O)cc(C(F)(F)F)n(C)c2=O)c(F)cc1Cl` [Saflufenacil]?
A: Tolerance factor [3]: 150; Tolerance factor [4]: 177
